Assay results: ChEMBL document CHEMBL1201862, “PubChem BioAssay data set” (2004)
Calls of active or inactive are those of the source.

Columns and labels:
HEK293 [1] = experiment: inhibition of NOD1-driven NF-kB reporter – cell-based, luminescence, uHTS, primary screen (AID 1578); assay type: functional; conditions: Homo sapiens
HEK293 [2] = experiment: cells; assay type: functional, cell-based; conditions: Homo sapiens
HEK293 [3] = experiment: cells; assay type: functional, cell-based; conditions: Homo sapiens; remark: listed apart in the source
HEK293 [4] = experiment: NOD2 signaling inhibitors in MDP-stimulated cells, cell-based, uHTS, luminescence (AID 2001); assay type: functional; conditions: Homo sapiens
HEK293 [5] = experiment: cells; assay type: functional, cell-based; conditions: Homo sapiens; remark: listed apart in the source
HEK293 [6] = experiment: cells; conditions: Homo sapiens
[7] = target: T1, Tyrosine-protein phosphatase non-receptor type 22 (Homo sapiens, UniProt Q9Y2R2); experiment: LYP1 Fluorescent Assay using OMFP substrate for In Vitro dose response studies. [Related pubchem assays (depositor defined):AID1779, AID1784, AID435024]
T1 sequence (Q9Y2R2 whole entry): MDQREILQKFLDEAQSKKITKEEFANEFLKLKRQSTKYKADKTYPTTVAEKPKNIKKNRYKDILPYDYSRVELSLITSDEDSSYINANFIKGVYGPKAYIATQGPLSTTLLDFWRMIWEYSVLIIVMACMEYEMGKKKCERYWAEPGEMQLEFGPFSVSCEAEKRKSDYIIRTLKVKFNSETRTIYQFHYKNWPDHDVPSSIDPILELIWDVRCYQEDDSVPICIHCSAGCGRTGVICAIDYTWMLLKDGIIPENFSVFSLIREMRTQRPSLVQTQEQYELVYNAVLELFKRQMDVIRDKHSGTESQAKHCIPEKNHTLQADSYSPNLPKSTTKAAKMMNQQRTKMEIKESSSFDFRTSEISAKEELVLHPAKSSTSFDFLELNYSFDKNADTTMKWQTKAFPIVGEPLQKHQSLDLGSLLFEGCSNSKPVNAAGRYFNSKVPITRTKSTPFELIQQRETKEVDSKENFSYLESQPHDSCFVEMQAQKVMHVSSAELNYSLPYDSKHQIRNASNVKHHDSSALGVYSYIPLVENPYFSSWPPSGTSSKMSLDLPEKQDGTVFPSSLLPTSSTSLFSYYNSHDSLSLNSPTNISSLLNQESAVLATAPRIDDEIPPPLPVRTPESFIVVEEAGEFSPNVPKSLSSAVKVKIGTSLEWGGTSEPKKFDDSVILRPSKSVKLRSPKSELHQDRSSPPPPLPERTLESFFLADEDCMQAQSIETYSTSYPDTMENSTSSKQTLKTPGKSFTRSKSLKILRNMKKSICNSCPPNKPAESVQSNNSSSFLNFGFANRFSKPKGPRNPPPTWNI

[8] = target: T2, Dual specificity protein phosphatase 3 (Homo sapiens, UniProt P51452); experiment: VHR1 phosphatase inhibitors, primary screen, biochemical, absorbance, uHTS (AID 1654)
T2 sequence (P51452 whole entry): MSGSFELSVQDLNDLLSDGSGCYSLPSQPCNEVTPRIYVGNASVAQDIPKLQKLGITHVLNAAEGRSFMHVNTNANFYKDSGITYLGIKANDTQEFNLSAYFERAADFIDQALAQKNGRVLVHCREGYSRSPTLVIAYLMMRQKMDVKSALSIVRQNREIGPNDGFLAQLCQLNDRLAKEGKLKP

[9] = target: T3, Tyrosine-protein phosphatase non-receptor type 7 (Homo sapiens, UniProt P35236); assay type: functional
T3 sequence (P35236 whole entry): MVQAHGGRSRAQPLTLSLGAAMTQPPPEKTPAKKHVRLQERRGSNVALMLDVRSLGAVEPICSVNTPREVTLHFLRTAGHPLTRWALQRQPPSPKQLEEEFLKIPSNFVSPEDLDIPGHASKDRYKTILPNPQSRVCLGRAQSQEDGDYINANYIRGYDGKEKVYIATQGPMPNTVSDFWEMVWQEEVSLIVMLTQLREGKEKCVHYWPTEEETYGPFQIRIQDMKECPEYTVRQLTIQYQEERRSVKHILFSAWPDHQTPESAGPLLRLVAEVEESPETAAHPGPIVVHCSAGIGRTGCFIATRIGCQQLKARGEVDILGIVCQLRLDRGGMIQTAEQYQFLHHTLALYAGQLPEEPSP

[10] = target: T3, Tyrosine-protein phosphatase non-receptor type 7; experiment: HTS HePTP Fluorescent Assay using OMFP substrate for In Vitro dose response studies. [Related pubchem assays (depositor defined):AID1059, AID1077, AID1784, AID2068, AID2085, AID435032, AID521]; assay type: functional
[11] = target: T1, Tyrosine-protein phosphatase non-receptor type 22; experiment: PTPN22 lymphoid phosphatase activity blockers – biochemical, fluorescence intensity, uHTS (AID 1779)
[12] = target: T2, Dual specificity protein phosphatase 3; experiment: VHR1 phosphatase inhibitors, biochemical (AID 1878)
[13] = target: T4, Dual specificity protein phosphatase 6 (Rattus norvegicus, UniProt Q64346); experiment: inhibition of rat DUSP6 enzyme activity – biochemical, in vitro, primary screen (AID 425)
T4 sequence (Q64346 whole entry): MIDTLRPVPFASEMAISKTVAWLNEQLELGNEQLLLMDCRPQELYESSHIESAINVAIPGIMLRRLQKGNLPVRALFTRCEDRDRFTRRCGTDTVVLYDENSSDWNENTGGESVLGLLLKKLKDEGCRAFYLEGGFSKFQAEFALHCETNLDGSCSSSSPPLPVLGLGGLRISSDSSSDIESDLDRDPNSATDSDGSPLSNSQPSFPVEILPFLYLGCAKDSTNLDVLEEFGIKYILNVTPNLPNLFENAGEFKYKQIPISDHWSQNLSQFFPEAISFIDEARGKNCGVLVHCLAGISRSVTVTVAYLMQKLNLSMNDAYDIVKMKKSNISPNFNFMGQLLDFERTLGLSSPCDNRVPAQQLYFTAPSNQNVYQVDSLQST

[14] = target: T1, Tyrosine-protein phosphatase non-receptor type 22; experiment: SAR LYP1 Fluorescent Assay using pCAP substrate for In Vitro dose response studies - Set 2. [Related pubchem assays (depositor defined):AID1779, AID1784, AID2135, AID449727]; assay type: functional
[15] = target: Tyrosine-protein phosphatase non-receptor type 12 (Homo sapiens, UniProt Q05209); experiment: SAR Selectivity Analysis of small molecule inhibitors of PEST using pCAP in a fluorescence assay. [Related pubchem assays (depositor defined):AID1779, AID1784, AID2135]; assay type: functional
Tyrosine-protein phosphatase non-receptor type 12, sequence (Q05209 whole entry): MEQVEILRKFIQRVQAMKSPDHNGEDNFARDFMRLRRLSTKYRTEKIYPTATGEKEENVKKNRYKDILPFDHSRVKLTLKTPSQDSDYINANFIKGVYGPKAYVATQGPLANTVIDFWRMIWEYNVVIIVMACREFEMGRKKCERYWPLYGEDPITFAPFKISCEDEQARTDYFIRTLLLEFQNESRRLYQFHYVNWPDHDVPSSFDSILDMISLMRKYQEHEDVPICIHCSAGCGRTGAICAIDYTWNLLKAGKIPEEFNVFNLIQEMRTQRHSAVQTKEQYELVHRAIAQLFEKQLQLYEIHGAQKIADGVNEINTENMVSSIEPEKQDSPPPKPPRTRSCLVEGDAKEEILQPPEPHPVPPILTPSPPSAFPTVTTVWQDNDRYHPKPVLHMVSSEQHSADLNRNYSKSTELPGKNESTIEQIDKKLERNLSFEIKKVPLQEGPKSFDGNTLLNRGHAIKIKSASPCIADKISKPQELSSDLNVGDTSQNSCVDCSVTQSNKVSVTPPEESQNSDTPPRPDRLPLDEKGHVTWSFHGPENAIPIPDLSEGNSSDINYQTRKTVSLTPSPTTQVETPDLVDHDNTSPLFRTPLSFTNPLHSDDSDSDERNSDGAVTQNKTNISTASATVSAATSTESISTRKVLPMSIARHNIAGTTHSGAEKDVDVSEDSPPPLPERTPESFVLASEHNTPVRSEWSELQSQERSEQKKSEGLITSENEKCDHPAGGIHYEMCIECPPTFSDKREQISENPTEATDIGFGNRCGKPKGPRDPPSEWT

[16] = target: T1, Tyrosine-protein phosphatase non-receptor type 22; experiment: SAR LYP1 Fluorescent Assay using OMFP substrate for In Vitro dose response studies - Set 3. [Related pubchem assays (depositor defined):AID1779, AID1784, AID2140, AID2686]; assay type: functional
[17] = target: T3, Tyrosine-protein phosphatase non-receptor type 7; experiment: inhibition of hematopoietic tyrosine phosphatase HePTP – biochemical, set 2, SAR follow-up (AID 449736); assay type: functional
[18] = target: T1, Tyrosine-protein phosphatase non-receptor type 22; experiment: inhibition of lymphoid tyrosine phosphatase LYP – biochemical, pCAP fluorogenic substrate, fluorescence, set 3, SAR follow-up (AID 449727); assay type: functional
[19] = target: T1, Tyrosine-protein phosphatase non-receptor type 22; assay type: functional
[20] = target: T1, Tyrosine-protein phosphatase non-receptor type 22; experiment: PubChem AID 2135
[21] = target: T1, Tyrosine-protein phosphatase non-receptor type 22; experiment: PubChem AID 2140
[22] = target: T1, Tyrosine-protein phosphatase non-receptor type 22; experiment: SAR LYP1 Fluorescent Assay using OMFP substrate for In Vitro dose response studies - Set 2. [Related pubchem assays (depositor defined):AID1779, AID1784, AID2140, AID449726, AID488869]; assay type: functional
[23] = target: T5, Low molecular weight phosphotyrosine protein phosphatase (Homo sapiens, UniProt P24666); assay type: functional; conditions: read-out: IC50_Mean
T5 sequence (P24666 whole entry): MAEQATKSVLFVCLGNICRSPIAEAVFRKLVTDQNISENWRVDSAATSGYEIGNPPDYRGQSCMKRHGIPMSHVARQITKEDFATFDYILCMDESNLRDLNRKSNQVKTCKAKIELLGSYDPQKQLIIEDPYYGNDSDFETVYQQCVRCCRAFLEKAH

[24] = target: T5, Low molecular weight phosphotyrosine protein phosphatase; assay type: functional; conditions: read-out: IC50_Mean; remark: listed apart in the source
[25] = target: Lysine-specific demethylase 4C (Homo sapiens, UniProt Q9H3R0); experiment: inhibition of JMJD2C H3K9me3 demethylation – biochemical, DELFIA europium, cherry-picked samples, dose response (AID 488835); assay type: functional
Lysine-specific demethylase 4C, sequence (Q9H3R0 whole entry): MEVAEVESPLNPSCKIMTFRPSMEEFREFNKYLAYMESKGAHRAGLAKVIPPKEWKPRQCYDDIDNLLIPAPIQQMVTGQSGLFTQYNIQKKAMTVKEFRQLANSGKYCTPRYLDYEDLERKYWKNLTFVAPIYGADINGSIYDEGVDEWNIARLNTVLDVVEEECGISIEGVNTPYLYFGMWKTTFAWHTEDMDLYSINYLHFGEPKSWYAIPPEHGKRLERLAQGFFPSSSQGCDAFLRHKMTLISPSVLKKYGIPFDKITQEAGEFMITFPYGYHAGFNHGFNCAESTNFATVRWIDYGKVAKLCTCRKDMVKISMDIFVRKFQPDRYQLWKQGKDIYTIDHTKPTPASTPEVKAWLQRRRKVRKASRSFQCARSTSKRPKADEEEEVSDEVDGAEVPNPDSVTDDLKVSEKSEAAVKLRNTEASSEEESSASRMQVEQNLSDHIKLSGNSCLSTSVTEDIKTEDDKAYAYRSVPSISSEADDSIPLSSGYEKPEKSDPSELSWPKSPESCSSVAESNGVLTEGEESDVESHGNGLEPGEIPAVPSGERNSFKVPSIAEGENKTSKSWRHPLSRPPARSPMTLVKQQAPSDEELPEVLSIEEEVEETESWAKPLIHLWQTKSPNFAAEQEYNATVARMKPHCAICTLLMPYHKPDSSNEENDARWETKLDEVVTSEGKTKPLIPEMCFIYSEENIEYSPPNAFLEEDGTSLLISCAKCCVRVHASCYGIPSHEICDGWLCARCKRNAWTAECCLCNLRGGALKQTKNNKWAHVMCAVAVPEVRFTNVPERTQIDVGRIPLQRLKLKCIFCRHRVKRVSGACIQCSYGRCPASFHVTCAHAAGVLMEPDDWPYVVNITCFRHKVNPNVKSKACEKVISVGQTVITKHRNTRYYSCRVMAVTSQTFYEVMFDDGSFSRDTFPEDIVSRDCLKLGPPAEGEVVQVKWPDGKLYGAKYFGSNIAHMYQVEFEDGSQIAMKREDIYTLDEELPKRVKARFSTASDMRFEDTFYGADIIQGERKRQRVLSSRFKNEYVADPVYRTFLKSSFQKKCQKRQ

[26] = restored growth of temperature-sensitive Burl-1 yeast – whole organism, S. cerevisiae, Burl-1 ts mutant, luminescence, counter-screen for SUMOylation pathway inhibitor project, dose response (AID 463199); assay type: functional
[27] = target: Lysine-specific demethylase 4A (Homo sapiens, UniProt O75164); experiment: inhibition of JMJD2A H3K9me3 demethylation – biochemical, DELFIA europium, cherry-picked samples, selectivity assay for GASC-1 inhibitor project, dose response (AID 488840)
Lysine-specific demethylase 4A, sequence (O75164 whole entry): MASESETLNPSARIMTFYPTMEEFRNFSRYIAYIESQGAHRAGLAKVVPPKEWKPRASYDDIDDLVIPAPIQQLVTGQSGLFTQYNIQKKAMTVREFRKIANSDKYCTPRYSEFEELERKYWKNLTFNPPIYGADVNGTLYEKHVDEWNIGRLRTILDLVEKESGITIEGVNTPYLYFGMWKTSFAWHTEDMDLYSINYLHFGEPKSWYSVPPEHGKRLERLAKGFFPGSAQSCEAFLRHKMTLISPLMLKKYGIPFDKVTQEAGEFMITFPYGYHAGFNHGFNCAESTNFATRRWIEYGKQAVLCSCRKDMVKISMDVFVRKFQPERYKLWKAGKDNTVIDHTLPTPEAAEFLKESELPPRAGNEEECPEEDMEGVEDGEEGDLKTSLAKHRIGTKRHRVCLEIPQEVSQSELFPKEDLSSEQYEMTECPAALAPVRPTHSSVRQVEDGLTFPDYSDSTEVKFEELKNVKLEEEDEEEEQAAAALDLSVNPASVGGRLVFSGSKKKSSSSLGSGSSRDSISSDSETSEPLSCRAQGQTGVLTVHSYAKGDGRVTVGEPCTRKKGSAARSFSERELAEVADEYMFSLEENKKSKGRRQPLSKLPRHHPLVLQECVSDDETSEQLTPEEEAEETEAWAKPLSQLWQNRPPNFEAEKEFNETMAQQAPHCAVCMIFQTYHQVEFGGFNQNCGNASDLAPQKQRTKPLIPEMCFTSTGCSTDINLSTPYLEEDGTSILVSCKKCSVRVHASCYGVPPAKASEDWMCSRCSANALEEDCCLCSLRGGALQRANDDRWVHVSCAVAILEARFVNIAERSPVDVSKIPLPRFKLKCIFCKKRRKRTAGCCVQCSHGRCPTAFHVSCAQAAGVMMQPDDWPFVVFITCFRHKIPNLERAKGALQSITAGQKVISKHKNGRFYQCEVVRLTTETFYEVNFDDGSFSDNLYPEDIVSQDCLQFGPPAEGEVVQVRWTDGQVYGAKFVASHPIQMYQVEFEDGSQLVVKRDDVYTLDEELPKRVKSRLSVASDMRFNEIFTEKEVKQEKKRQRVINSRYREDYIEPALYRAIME

Cytochrome P450 2C19 = Cytochrome P450 2C19 (Homo sapiens, UniProt P33261); experiment: Cytochrome panel assay with activity outcomes. Panel member name: p450-cyp2c19 Compounds with AC50 equal or less than 10 uM are considered active; assay type: functional
Cytochrome P450 2C19, sequence (P33261 whole entry): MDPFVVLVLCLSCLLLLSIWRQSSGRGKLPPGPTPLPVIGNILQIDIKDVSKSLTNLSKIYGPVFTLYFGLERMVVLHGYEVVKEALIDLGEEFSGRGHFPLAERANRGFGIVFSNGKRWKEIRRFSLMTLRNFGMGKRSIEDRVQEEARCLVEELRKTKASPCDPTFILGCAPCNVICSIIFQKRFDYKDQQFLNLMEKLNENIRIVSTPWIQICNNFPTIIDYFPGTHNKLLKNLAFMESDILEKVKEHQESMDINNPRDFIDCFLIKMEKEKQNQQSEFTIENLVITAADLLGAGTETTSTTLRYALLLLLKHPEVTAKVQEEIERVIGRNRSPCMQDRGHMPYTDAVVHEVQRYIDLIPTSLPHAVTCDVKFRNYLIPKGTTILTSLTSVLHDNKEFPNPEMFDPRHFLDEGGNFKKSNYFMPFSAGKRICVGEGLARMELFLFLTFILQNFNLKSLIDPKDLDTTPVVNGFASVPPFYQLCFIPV

Cytochrome P450 2D6 = Cytochrome P450 2D6 (Homo sapiens, UniProt P10635);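 further: CYP2D6 member of a cytochrome P450 panel assay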
Cytochrome P450 2D6, sequence (P10635 whole entry): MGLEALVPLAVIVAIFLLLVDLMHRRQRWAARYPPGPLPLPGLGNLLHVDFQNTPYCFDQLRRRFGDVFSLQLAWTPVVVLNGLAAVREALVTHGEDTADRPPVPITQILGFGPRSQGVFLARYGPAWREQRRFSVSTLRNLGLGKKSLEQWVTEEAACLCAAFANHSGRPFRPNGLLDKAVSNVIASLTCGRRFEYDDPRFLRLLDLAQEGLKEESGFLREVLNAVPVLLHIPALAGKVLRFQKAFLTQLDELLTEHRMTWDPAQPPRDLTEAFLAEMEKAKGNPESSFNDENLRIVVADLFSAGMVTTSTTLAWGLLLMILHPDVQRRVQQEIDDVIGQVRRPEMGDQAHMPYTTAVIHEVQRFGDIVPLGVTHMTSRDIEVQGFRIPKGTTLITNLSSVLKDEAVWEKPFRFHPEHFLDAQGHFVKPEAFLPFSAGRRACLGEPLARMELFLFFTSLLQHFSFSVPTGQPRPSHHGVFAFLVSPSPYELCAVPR

Cytochrome P450 1A2 = target: T6, Cytochrome P450 1A2 (Homo sapiens, UniProt P05177);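 further: PubChem cytochrome P450 panel assay, CYP1A2 panel member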
T6 sequence (P05177 whole entry): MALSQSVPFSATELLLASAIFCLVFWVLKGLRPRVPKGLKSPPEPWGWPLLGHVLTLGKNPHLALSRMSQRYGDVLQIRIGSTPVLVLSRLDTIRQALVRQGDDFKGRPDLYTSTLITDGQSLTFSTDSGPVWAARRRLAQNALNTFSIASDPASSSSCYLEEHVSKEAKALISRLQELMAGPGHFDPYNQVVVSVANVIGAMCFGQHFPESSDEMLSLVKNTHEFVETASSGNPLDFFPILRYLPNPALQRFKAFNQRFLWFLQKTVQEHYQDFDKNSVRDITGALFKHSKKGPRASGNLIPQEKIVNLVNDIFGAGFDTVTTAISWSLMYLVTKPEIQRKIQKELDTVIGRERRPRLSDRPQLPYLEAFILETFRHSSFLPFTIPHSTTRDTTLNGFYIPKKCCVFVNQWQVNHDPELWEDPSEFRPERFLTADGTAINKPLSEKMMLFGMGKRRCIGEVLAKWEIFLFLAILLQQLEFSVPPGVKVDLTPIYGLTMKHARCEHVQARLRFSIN

SMILES: O=C(CSc1nc(O)c2c(-c3ccccc3)csc2n1)Nc1ccccc1
- EC50 (HEK293 [1]): 5.71 µM (active)
- IC50 (HEK293 [2]): 4.78 µM (active)
- IC50 (HEK293 [3]): 16 µM (active)
- IC50 (HEK293 [4]): 1.93 µM (active)
- IC50 (HEK293 [5]): > 20 µM (inactive)
- IC50 (HEK293 [6]): > 20 µM (inactive)

SMILES: Cc1ccc(/C=C/c2nc(O)c3c(C)c(C(=O)O)sc3n2)cc1[N+](=O)[O-]
- IC50 [7]: 16.8 µM (active)
- IC50 [8]: 11.1 µM (active)
- IC50 [9]: 12.2 µM (active)
- IC50 [10]: > 99 µM (inactive)
- IC50 [11]: 12.9 µM (active)
- IC50 [12]: 1.62 µM (active)
- IC50 [13]: 8.48 µM (active)
- IC50 [14]: 3.17 µM (active)
- IC50 [15]: 3.43 µM (active)
- IC50 [16]: 10.7 µM (active)
- IC50 [17]: 2.92 µM (active)
- IC50 [18]: 6.19 µM (active)
- IC50 [19]: 11.2 µM (active)
- IC50 [20]: 6.6 µM (active)
- IC50 [21]: 50.9 µM (active)
- IC50 [22]: 4.56 µM (active)
- IC50 [23]: > 80 µM (inactive)
- IC50 [24]: 32.7 µM (inactive)

SMILES: CCCn1c(SCC(=O)NNC(=O)c2ccc(C)cc2)nnc1C(C)C
- AC50 [25]: 9.91 µM (active)

SMILES: CCOC(=O)c1c(CN2CCCCC2)n(C)c2cc(Br)c(O)c(CN(C)C)c12
- AC50 [26]: 52.5 µM (active)

SMILES: O=c1nc(SCc2cccc(C(F)(F)F)c2)nc2ccccn12
- AC50 [27]: > 60 µM (inactive)

SMILES: CN(C)CCN(c1ccccn1)c1ccccn1
- AC50 (Cytochrome P450 2C19): inconclusive
- AC50 (Cytochrome P450 2D6): 3.98 µM (inconclusive)
- AC50 (Cytochrome P450 1A2): inconclusive
